Results as given in ChEMBL document CHEMBL5380860, “Design, Synthesis, and Antitumor Activity of Potent and Selective EGFR L858R/T790M Inhibitors and Identification of a Combination Therapy to Overcome Acquired Resistance in Models of Non-small-cell Lung Cancer” (J Med Chem, 2023).

Key:
[1] = system: NCI-H1975; test: Induction of apoptosis in human NCI-H1975 cells assessed as early apoptotic cells at 10 uM incubated for 48 hrs by AnnexinV-FITC/PI staining based flow cytometry (reference value: 0.61%); format: functional
[2] = system: NCI-H1975; test: Induction of apoptosis in human NCI-H1975 cells assessed as late apoptotic cells at 0.1 uM incubated for 48 hrs by AnnexinV-FITC/PI staining based flow cytometry (reference value: 0.79%); format: functional
[3] = system: HCC827; test: Induction of apoptosis in human HCC827 cells assessed as early apoptotic cells at 0.1 uM incubated for 48 hrs by AnnexinV-FITC/PI staining based flow cytometry (reference value: 0.24%); format: functional
[4] = system: HCC827; test: Induction of apoptosis in human HCC827 cells assessed as late apoptotic cells at 10 uM incubated for 48 hrs by AnnexinV-FITC/PI staining based flow cytometry (reference value: 1.75%); format: functional
[5] = system: A549; test: Induction of apoptosis in human A549 cells assessed as early apoptotic cells at 0.1 uM incubated for 48 hrs by AnnexinV-FITC/PI staining based flow cytometry (reference value: 3.89%); format: toxicity, cell-based; conditions: a549, 48 h
[6] = system: A549; test: Induction of apoptosis in human A549 cells assessed as early apoptotic cells at 1 uM incubated for 48 hrs by AnnexinV-FITC/PI staining based flow cytometry (reference value: 3.89%); format: toxicity, cell-based; conditions: a549, 48 h
[7] = system: A549; test: Induction of apoptosis in human A549 cells assessed as early apoptotic cells at 10 uM incubated for 48 hrs by AnnexinV-FITC/PI staining based flow cytometry (reference value: 3.89%); format: toxicity, cell-based; conditions: a549, 48 h
[8] = system: A549; test: Induction of apoptosis in human A549 cells assessed as late apoptotic cells at 1 uM incubated for 48 hrs by AnnexinV-FITC/PI staining based flow cytometry (reference value: 0.51%); format: toxicity, cell-based; conditions: a549, 48 h
[9] = system: A-431; test: Induction of apoptosis in human A-431 cells assessed as early apoptotic cells at 1 uM incubated for 48 hrs by AnnexinV-FITC/PI staining based flow cytometry (reference value: 1.37%); format: toxicity, cell-based; conditions: a-431, 48 h
[10] = system: A-431; test: Induction of apoptosis in human A-431 cells assessed as late apoptotic cells at 1 uM incubated for 48 hrs by AnnexinV-FITC/PI staining based flow cytometry (reference value: 1.86%); format: toxicity, cell-based; conditions: a-431, 48 h
[11] = system: NCI-H1975; test: Induction of cell cycle arrest in human NCI-H1975 cells assessed as accumulation of cells at G1 phase at 0.1 uM incubated for 48 hrs by PI staining based flow cytometry (reference value: 50.1%); format: functional
[12] = system: NCI-H1975; test: Induction of cell cycle arrest in human NCI-H1975 cells assessed as accumulation of cells at S phase at 0.1 uM incubated for 48 hrs by PI staining based flow cytometry (reference value: 29.8%); format: functional
[13] = system: NCI-H1975; test: Induction of cell cycle arrest in human NCI-H1975 cells assessed as accumulation of cells at G2 phase at 0.1 uM incubated for 48 hrs by PI staining based flow cytometry (reference value: 19.3%); format: functional
[14] = system: NCI-H1975; test: Induction of cell cycle arrest in human NCI-H1975 cells assessed as accumulation of cells at G1 phase at 1 uM incubated for 48 hrs by PI staining based flow cytometry (reference value: 50.1%); format: functional
[15] = system: NCI-H1975; test: Induction of cell cycle arrest in human NCI-H1975 cells assessed as accumulation of cells at G1 phase at 10 uM incubated for 48 hrs by PI staining based flow cytometry (reference value: 50.1%); format: functional
[16] = system: NCI-H1975; test: Induction of cell cycle arrest in human NCI-H1975 cells assessed as accumulation of cells at S phase at 10 uM incubated for 48 hrs by PI staining based flow cytometry (reference value: 29.8%); format: functional
[17] = system: NCI-H1975; test: Induction of cell cycle arrest in human NCI-H1975 cells assessed as accumulation of cells at G2 phase at 10 uM incubated for 48 hrs by PI staining based flow cytometry (reference value: 19.3%); format: functional
[18] = system: HCC827; test: Induction of cell cycle arrest in human HCC827 cells assessed as accumulation of cells at G1 phase at 0.1 uM incubated for 48 hrs by PI staining based flow cytometry (reference value: 65.2%); format: functional
[19] = system: HCC827; test: Induction of cell cycle arrest in human HCC827 cells assessed as accumulation of cells at G2 phase at 0.1 uM incubated for 48 hrs by PI staining based flow cytometry (reference value: 25.9%); format: functional
[20] = system: HCC827; test: Induction of cell cycle arrest in human HCC827 cells assessed as accumulation of cells at G1 phase at 1 uM incubated for 48 hrs by PI staining based flow cytometry (reference value: 65.2%); format: functional
[21] = system: HCC827; test: Induction of cell cycle arrest in human HCC827 cells assessed as accumulation of cells at S phase at 1 uM incubated for 48 hrs by PI staining based flow cytometry (reference value: 15.2%); format: functional
[22] = system: HCC827; test: Induction of cell cycle arrest in human HCC827 cells assessed as accumulation of cells at G2 phase at 1 uM incubated for 48 hrs by PI staining based flow cytometry (reference value: 25.9%); format: functional
[23] = system: HCC827; test: Induction of cell cycle arrest in human HCC827 cells assessed as accumulation of cells at G1 phase at 10 uM incubated for 48 hrs by PI staining based flow cytometry (reference value: 65.2%); format: functional
[24] = system: A549; test: Induction of cell cycle arrest in human A549 cells assessed as accumulation of cells at G1 phase at 0.1 uM incubated for 48 hrs by PI staining based flow cytometry (reference value: 52.4%); format: toxicity; conditions: a549, 48 h
[25] = system: A549; test: Induction of cell cycle arrest in human A549 cells assessed as accumulation of cells at S phase at 0.1 uM incubated for 48 hrs by PI staining based flow cytometry (reference value: 29.4%); format: toxicity; conditions: a549, 48 h
[26] = system: A549; test: Induction of cell cycle arrest in human A549 cells assessed as accumulation of cells at G2 phase at 0.1 uM incubated for 48 hrs by PI staining based flow cytometry (reference value: 18.1%); format: toxicity; conditions: a549, 48 h
[27] = system: A-431; test: Induction of cell cycle arrest in human A-431 cells assessed as accumulation of cells at S phase at 0.1 uM incubated for 48 hrs by PI staining based flow cytometry (reference value: 30.5%); format: toxicity; conditions: a-431, 48 h
[28] = system: A-431; test: Induction of cell cycle arrest in human A-431 cells assessed as accumulation of cells at G2 phase at 0.1 uM incubated for 48 hrs by PI staining based flow cytometry (reference value: 21.7%); format: toxicity; conditions: a-431, 48 h
[29] = system: A-431; test: Induction of cell cycle arrest in human A-431 cells assessed as accumulation of cells at G1 phase at 1 uM incubated for 48 hrs by PI staining based flow cytometry (reference value: 46.9%); format: toxicity; conditions: a-431, 48 h
[30] = system: A-431; test: Induction of cell cycle arrest in human A-431 cells assessed as accumulation of cells at G2 phase at 1 uM incubated for 48 hrs by PI staining based flow cytometry (reference value: 21.7%); format: toxicity; conditions: a-431, 48 h
[31] = system: A-431; test: Induction of cell cycle arrest in human A-431 cells assessed as accumulation of cells at S phase at 10 uM incubated for 48 hrs by PI staining based flow cytometry (reference value: 30.5%); format: toxicity; conditions: a-431, 48 h
[32] = Half-life in human liver microsomes at 1 uM measured for 60 mins by LC-MS analysis; format: ADME, Microsome
[33] = Intrinsic clearance in human liver microsomes at 1 uM measured for 60 mins by LC-MS analysis; format: ADME, Microsome; conditions: read-out: CLH

SMILES: C=CC(=O)Nc1cc(Nc2nccc(-c3cn(C)c4ccccc34)n2)c(OC)cc1N(C)CCN(C)C [OSIMERTINIB]
- Activity [1]: 42%
- Activity [2]: 9.27%
- Activity [3]: 15.2%
- Activity [4]: 22.4%
- Activity [5]: 4.13%
- Activity [6]: 8%
- Activity [7]: 18.6%
- Activity [8]: 0.85%
- Activity [9]: 5.72%
- Activity [10]: 6.74%
- Activity [11]: 64.3%
- Activity [12]: 16.2%
- Activity [13]: 20.2%
- Activity [14]: 71.5%
- Activity [15]: 78.3%
- Activity [16]: 11.5%
- Activity [17]: 10.4%
- Activity [18]: 72.9%
- Activity [19]: 13.6%
- Activity [20]: 77.2%
- Activity [21]: 11.4%
- Activity [22]: 10.9%
- Activity [23]: 79.5%
- Activity [24]: 53.4%
- Activity [25]: 30.9%
- Activity [26]: 15.1%
- Activity [27]: 30.6%
- Activity [28]: 19.9%
- Activity [29]: 52.5%
- Activity [30]: 19.6%
- Activity [31]: 23.9%
- half-life at 1 µM [32]: 0.97 h
- CLint scaled at 1 µM [33]: 21.4 mL/min/kg

SMILES: C=CC(=O)Nc1cccc(Nc2nc(Nc3ccc(N4CCN(C)CC4)cc3)nc3ccc(F)cc23)c1
- Activity [1]: 83.2%
- Activity [2]: 8.57%
- Activity [3]: 10.1%
- Activity [4]: 12.3%
- Activity [5]: 4.3%
- Activity [6]: 6.44%
- Activity [7]: 14.6%
- Activity [8]: 0.98%
- Activity [9]: 3.58%
- Activity [10]: 2.9%
- Activity [11]: 67.1%
- Activity [12]: 17.5%
- Activity [13]: 15.5%
- Activity [14]: 72.2%
- Activity [15]: 80.5%
- Activity [16]: 11.3%
- Activity [17]: 7.05%
- Activity [18]: 74%
- Activity [19]: 13.5%
- Activity [20]: 78.2%
- Activity [21]: 8.07%
- Activity [22]: 12.2%
- Activity [23]: 81.1%
- Activity [24]: 57.2%
- Activity [25]: 25.9%
- Activity [26]: 16.5%
- Activity [27]: 30.1%
- Activity [28]: 17.4%
- Activity [29]: 54.1%
- Activity [30]: 18.6%
- Activity [31]: 20.4%
- half-life at 1 µM [32]: 1.63 h
- CLint scaled at 1 µM [33]: 12.8 mL/min/kg
